Entries after “also recorded” stand apart in the source; their conditions may differ.
Test system: 3×Tg-AD mice
Test: Sorting Activity Test (SAT), bedding sorting score, tricyclic antidepressants
Assay type: in vivo, mouse
Conditions: for mean sorting score over the course of the study: 6 cages x 7 weeks; for mean sorting score over the course of the study / mean sorting score: score 0-4; for mean sorting score: day 7 after bedding change, 6 cages, dosed once daily Mon-Fri
Text: The 3×Tg-AD mice developed by LaFerla et al., at the University of California at Irvine (Neuron 2003b) were used in the study. These mice harbor mutations in three different genes: the β-amyloid precursor protein (APPSweKM→NL), presenilin-1 (PS1M146V) and tau (P301L). […] Intracellular A-beta peptide immunoreactivity has been reported to appear by as early as three months of age and extracellular A-beta deposits in evidence between six and 12 months of age (Oddo et al., 2003a, 2003b). In the cohort of mice used in the present studies, these hallmarks of AD were not observed until 19 months of age by immunohistochemical methods.
Triple transgenic (3×Tg-AD) mice and corresponding non-transgenic control mice were weaned and group housed four (4) mice per cage in large static microisolator caging composed of a tinted polycarbonate cage, stainless steel lid, and polycarbonate filtered top at Ace Animals, Inc. Mice were fed 5% Fat Purina Autoclavable Breeder Diet (Item #RHI5R24CGP) and provided reverse osmosis chlorinated water ad libitum within a barrier environment in an environmentally controlled facility (22° C., 40-60% relative humidity) with a 12:12-hour light: dark cycle. Health status reports certify that all animals were free of known viral, bacterial, and parasitic pathogens.
The unique factor within this colony was the use of a combination corncob and papered bedding (AlphaCobb® cat #ALPHA4B, Animal Specialties and Provisions, Quakertown, Pa.). The mice were 8 weeks of age at the start of the study.
Mice were housed 2 per cage, 6 cages per group: Non-transgenic control, untreated, 3×Tg-AD, untreated, 3×Tg-AD, Desipramine, 30 mg/kg, and 3×Tg-AD, Imipramine. All mice were approximately two months of age at the start of the study. Mice were dosed once daily, Monday through Friday with test article. Cages were photographed weekly on Day 7, and cage bedding was changed once per week after photographs were taken.
In order to quantify the sorting behavior of the mice in this study, a scoring system was devised. Before the start of the initial study the mice were observed. It was evident that the sorting behavior was not an “all or nothing” phenomenon, but rather existed in degrees. After observing the cages for some time, scoring criteria were established.
In these cages, the two types of bedding were equally mixed throughout the cage. There was no area where one bedding type was more concentrated.
In these cages, a small area of white bedding was seen, usually piled in a corner. The two types of bedding were equally mixed throughout the rest of the cage.
A score of 2 was given to cages when the white area of bedding was more pronounced, yet the bedding throughout the rest of the cage was still mixed.
A score of 3 was given to cages when the white area was very clearly defined, and very little white bedding was left mixed with the Alpha Cobb.
A score of 4 was given to cages when the two types of bedding were almost completely separated from each other.
The degree of sorting at the end of each 7 day period (before the cages were changed) was scored using this system.
Using the scoring system devised and making daily observations of the cages, the behavior patterns of the non-transgenic control mice could be clearly distinguished from the 3×Tg-AD mice within a matter of a couple days, but was most prominent after Day 3. At Day 7 before each bedding change, the bedding of each cage was digitally photographed and scored. Table 1 provides the mean score and standard deviation (SD) for each group of mice for each week observed.
Data was analyzed using GraphPad Prism software with ANOVA one-way analysis of variance followed by Dunnett's multiple comparison test. All groups (6 cages×7 weeks) were compared to untreated 3×TgAD group. Significance was defined as p<0.05.

| Structure (SMILES) | mean sorting score over the course of the study | sorting behavior, in words (treated 3×Tg-AD mice compared to untreated Tg mice) | mean sorting score (week 1) | mean sorting score (week 2) | mean sorting score (week 3) | mean sorting score (week 4) | mean sorting score (week 5) | mean sorting score (week 6) | mean sorting score (week 7) |
| --- | --- | --- | --- | --- | --- | --- | --- | --- | --- |
| CNCCCN1c2ccccc2CCc2ccccc21 [DESIPRAMINE, Desipramine] | 0.67 | regained some of the behavior; also recorded: greater effect than imipramine | 0.00 | 0.50 | 1.17 | 0.83 | 0.83 | 0.50 | 0.83 |
| CN(C)CCCN1c2ccccc2CCc2ccccc21 [IMIPRAMINE, Imipramine] | 0.31 | – | 0.00 | 0.67 | 0.17 | 0.33 | 0.33 | 0.33 | 0.33 |
